In US9974785B2, “Aromatic heterocyclic derivatives and pharmaceutical applications thereof” (SUNSHINE LAKE PHARMA CO., LTD., priority 2014, dated 2018) one finds Ki, half-life and CLint scaled data, which are given here for 32 molecules.

Series [1] has as its target human 5-HT6 receptor (Homo sapiens (Human), UniProt P50406). Put plainly: Radioligand binding assay, human 5-HT6 receptor expressed in CHO cell. The following applies: 2 nM [3H]LSD. As to the method: Example A: The Binding Affinities of the Compounds of this Invention to Human 5-HT6 Receptor Expressed in CHO Cell were Evaluated by Radioligand Binding Assay as Follows
32 μg membrane proteins of CHO cell expressing human 5-HT6 receptor, 2 nM of radioactive marker [3H]LSD, a compound of the present invention having different test concentrations, 100 μM 5-HT (5-HT was used to eliminate nonspecific binding sites) and a buffer solution were mixed uniformly. Then the resulting mixture was incubated at 37° C. for 120 min, in which the buffer solution comprised 50 mM Tris-HCl (pH 7.4), 10 mM MgCl2, 0.5 mM EDTA, 10 μM pargyline and 20 mg/L protease inhibitor.
After incubation, the resulting mixture was filtered by a fiberglass filter (GF/B, Packard) in vacuo, and the filter membrane of the fiberglass filter was preimpregnated with 0.3% PEI before the filtering and washed with 50 mM of Tris-HCl for several times after the filtering. After the filter membrane was dried, and the radioactivity of filter membrane was determined by liquid scintillation counting by using a scintillometer (Topcount, Packard). The reference standard was 5-HT, and competitive inhibition curves were plotted based on several inhibition ratios and the corresponding compound concentrations. IC50 values were calculated by non-linear regression analysis using Hill equation curves, and the Ki values were calculated from IC50 by using the ChengPrusoff equation.

Series [2] is described as follows: Stability in rat liver microsomes. Format: in vitro ADME. The settings on record: rat liver microsome 0.5 mg/mL, 1 μM compound, 37° C. How it is done: (§1) Example C: Evaluation of the Stability of the Compounds of the Invention in Rat and Human Liver Microsomes
(§2) The compound of the invention and rat liver microsome or human liver microsome were placed in 0.1 M potassium phosphate buffer (containing 1.0 mM EDTA, pH=7.4) at 37° C., and the mixture was incubated at 37° C. The concentrations of the compound at different incubation time points were determined, and the half-life of the compound was calculated by curve plotted based on the relative contents of the compound and the corresponding incubation times by using GraphPad Prism 5.01. Then the intrinsic clearance was calculated.
(§3) The peak area ratio of sample to internal standard was analyzed by the LC/MS/MS system. The content of the compound at 0 min was 100%, and the relative contents of the compound at different time points were calculated. The half-life of the compound was calculated by curve plotted based on the relative contents of the compound and the corresponding incubation times, and the intrinsic clearance was calculated.
(Liver microsomes are vesicles of endoplasmic reticulum, rich in cytochrome P450 enzymes.)

A short description of series [3]: Stability in human liver microsomes. Format: in vitro ADME. The settings on record: liver microsomes, human liver microsome 0.5 mg/mL, 1 μM compound, 37° C., pH 7.4. How it is done:
as §1, §2, §3

Sequence of human 5-HT6 receptor (P50406 whole entry): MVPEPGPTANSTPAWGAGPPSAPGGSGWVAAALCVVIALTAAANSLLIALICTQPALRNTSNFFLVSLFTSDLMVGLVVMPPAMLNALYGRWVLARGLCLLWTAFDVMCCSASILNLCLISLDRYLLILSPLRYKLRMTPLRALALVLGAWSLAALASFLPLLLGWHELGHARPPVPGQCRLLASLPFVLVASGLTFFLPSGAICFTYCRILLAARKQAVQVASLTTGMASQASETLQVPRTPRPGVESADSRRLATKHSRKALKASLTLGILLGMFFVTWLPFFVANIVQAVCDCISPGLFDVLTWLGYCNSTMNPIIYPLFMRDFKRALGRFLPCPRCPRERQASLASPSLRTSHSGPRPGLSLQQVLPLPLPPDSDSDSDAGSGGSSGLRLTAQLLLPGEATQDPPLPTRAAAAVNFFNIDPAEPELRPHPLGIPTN

As a reminder, the Ki is the dissociation constant of the complex between target and ligand, obtained from inhibition or displacement. A low value points to tighter binding. The molecule `O=S(=O)(c1ccccc1Cl)n1cc(C(F)F)c2cc(N3CCNCC3)ccc21` [Example 13, 1-((2-chlorophenyl)sulfonyl)-3-(difluoromethyl)-5-(piperazin-1-yl)-1H-indole] displayed an inhibitory constant (Ki) in series [1] of 0.013 µM. Still for that read-out and setting: next, `O=S(=O)(c1ccccc1C(F)(F)F)n1cc(C(F)F)c2c(N3CCNCC3)cc(Cl)cc21` [Example 23, 6-chloro-3-(difluoromethyl)-4-(piperazin-1-yl)-1-((2-(trifluoromethyl)phenyl)sulfonyl)-1H-indole]: 0.0093 µM; `O=S(=O)(c1ccccc1Br)n1cc(C(F)F)c2c(N3CCNCC3)cc(Cl)cc21` [Example 26, 1-((2-bromophenyl)sulfonyl)-6-chloro-3-(difluoromethyl)-4-(piperazin-1-yl)-1H-indole]: 0.0011 µM. In general, half-life refers to how long it takes for the measured level to halve. A high value points to slow decline. The molecule `O=S(=O)(c1ccccc1Br)n1cc(C(F)F)c2c(N3CCNCC3)cccc21` [Example 4, 1-((2-bromophenyl)sulfonyl)-3-(difluoromethyl)-4-(piperazin-1-yl)-1H-indole] showed a Ki in series [1] of 0.0011 µM. Further, the values for the half-life at 1 μM in series [2] (pH 7.4) and in series [3] were 0.506 h and 2.62 h, respectively. Moreover, the CLint scaled at 1 μM in series [2] (pH 7.4, read-out: Intrinsic clearance) was found to be 81.8 mL/min/kg; in series [3] (read-out: Intrinsic clearance), 11.1 mL/min/kg. For the molecule `O=S(=O)(c1ccccc1F)n1cc(C(F)F)c2c(N3CCNCC3)cc(Cl)cc21` [Example 24, 6-chloro-3-(difluoromethyl)-1-((2-fluorophenyl)sulfonyl)-4-(piperazin-1-yl)-1H-indole], the Ki in series [1] came out at 0.0016 µM. The same measure, in the same setting: to `CN1CCN(c2cccc3c2c(C(F)F)cn3S(=O)(=O)c2cccc(F)c2)CC1` [Example 42, 3-(difluoromethyl)-1-((3-fluorophenyl)sulfonyl)-4-(4-methylpiperazin-1-yl)-1H-indole] belongs 0.0007 µM; to `O=S(=O)(c1ccccc1Cl)n1cc(C(F)F)c2c(N3CCNCC3)cc(Cl)cc21` [Example 25, 6-chloro-1-((2-chlorophenyl)sulfonyl)-3-(difluoromethyl)-4-(piperazin-1-yl)-1H-indole], 0.00068 µM; to `O=S(=O)(c1cccc(Br)c1)n1cc(C(F)F)c2cc(N3CCNCC3)ccc21` [Example 19, 1-((3-bromophenyl)sulfonyl)-3-(difluoromethyl)-5-(piperazin-1-yl)-1H-indole], 0.013 µM. The molecule `O=S(=O)(c1cccc(Br)c1)n1cc(C(F)F)c2c(NC3CCNCC3)cccc21` [Example 54, 1-((3-bromophenyl)sulfonyl)-3-(difluoromethyl)-N-(piperidin-4-yl)-1H-indol 4-amine] yielded an inhibitory constant (Ki) in series [1] of 0.011 µM.

On to `CC(C)N1CCN(c2cccc3c2c(C(F)F)cn3S(=O)(=O)c2cccc(F)c2)CC1` [Example 44, 3-(difluoromethyl)-1-((3-fluorophenyl)sulfonyl)-4-(4-isopropylpiperazin-1-yl)-1H-indole], for which the affinity in series [1] corresponds to a Ki of 0.027 µM.

With `O=S(=O)(c1ccccc1)n1cc(C(F)F)c2c(NC3CCNCC3)cccc21` [Example 55, 3-(difluoromethyl)-1-(phenylsulfonyl)-N-(piperidin-4-yl)-1H-indol-4-amine], the affinity in series [1], expressed as Ki, was 0.065 µM. On the same count and under the same terms, to `O=S(=O)(c1cccc(Br)c1)n1cc(C(F)F)c2c(N3CCNCC3)cc(Cl)cc21` [Example 29, 1-((3-bromophenyl)sulfonyl)-6-chloro-3-(difluoromethyl)-4-(piperazin-1-yl)-1H-indole] belongs 0.0013 µM; to `O=S(=O)(c1ccccc1)n1cc(C(F)F)c2c(N3CCNCC3)cccc21` [Example 1, 3-(difluoromethyl)-1-(phenylsulfonyl)-4-(piperazin-1-yl)-1H-indole], 0.0016 µM; to `O=S(=O)(c1cccc(F)c1)n1cc(C(F)F)c2c(N3CCNCC3)cc(Cl)cc21` [Example 27, 6-chloro-3-(difluoromethyl)-1-((3-fluorophenyl)sulfonyl)-4-(piperazin-1-yl)-1H-indole], 0.0019 µM. Same read-out and setting: next, `O=S(=O)(c1cccc(F)c1)n1cc(C(F)F)c2c(NC3CCNCC3)cccc21` [Example 52, 3-(difluoromethyl)-1-((3-fluorophenyl)sulfonyl)-N-(piperidin-4-yl)-1H-indol-4-amine]: 0.018 µM; `O=S(=O)(c1ccc2ccccc2c1)n1cc(C(F)F)c2c(N3CCNCC3)cccc21` [Example 10, 3-(difluoromethyl)-1-(naphthalen-2-ylsulfonyl)-4-(piperazin-1-yl)-1H-indole]: 0.0005 µM.

As to `Cc1ccc(S(=O)(=O)n2cc(C(F)F)c3c(N4CCNCC4)cccc32)cc1` [Example 7, 3-(difluoromethyl)-4-(piperazin-1-yl)-1-tosyl-1H-indole], the affinity in series [1] corresponds to a Ki of 0.0064 µM. On the same count and under the same terms, next, `O=S(=O)(c1cccc(F)c1)n1cc(C(F)F)c2c(N3CCNCC3)cc(Br)cc21` [Example 35, 6-bromo-3-(difluoromethyl)-1-((3-fluorophenyl)sulfonyl)-4-(piperazin-1-yl)-1H-indole]: 0.0019 µM; `O=S(=O)(c1cccc(Br)c1)n1cc(C(F)F)c2c(N3CCNCC3)cc(Br)cc21` [Example 37, 6-bromo-1-((3-bromophenyl)sulfonyl)-3-(difluoromethyl)-4-(piperazin-1-yl)-1H-indole]: 0.0015 µM. The molecule `COc1ccc(S(=O)(=O)n2cc(C(F)F)c3c(N4CCNCC4)cccc32)cc1` [Example 8, 3-(difluoromethyl)-1-((4-methoxyphenyl)sulfonyl)-4-(piperazin-1-yl)-1H-indole] showed a Ki in series [1] of 0.012 µM. The same measure, in the same setting: next, `O=S(=O)(c1ccc(Br)cc1)n1cc(C(F)F)c2cc(N3CCNCC3)ccc21` [Example 21, 1-((4-bromophenyl)sulfonyl)-3-(difluoromethyl)-5-(piperazin-1-yl)-1H-indole]: 0.044 µM. On the same count and under the same terms, to `O=S(=O)(c1ccccc1)n1cc(C(F)F)c2cc(N3CCNCC3)ccc21` [Example 11, 3-(difluoromethyl)-1-(phenylsulfonyl)-5-(piperazin-1-yl)-1H-indole] belongs 0.011 µM. The same measure, in the same setting: next, `O=S(=O)(c1ccc(Cl)cc1)n1cc(C(F)F)c2cc(N3CCNCC3)ccc21` [Example 20, 1-((4-chlorophenyl)sulfonyl)-3-(difluoromethyl)-5-(piperazin-1-yl)-1H-indole]: 0.044 µM; `O=S(=O)(c1cccc(Cl)c1)n1cc(C(F)F)c2c(N3CCNCC3)cc(Br)cc21` [Example 36, 6-bromo-1-((3-chlorophenyl)sulfonyl)-3-(difluoromethyl)-4-(piperazin-1-yl)-1H-indole]: 0.0017 µM. `O=S(=O)(c1ccccc1F)n1cc(C(F)F)c2cc(N3CCNCC3)ccc21` [Example 12, 3-(difluoromethyl)-1-((2-fluorophenyl)sulfonyl)-5-(piperazin-1-yl)-1H-indole]: the affinity in series [1] corresponds to a Ki of 0.03 µM. For `O=S(=O)(c1cccc(Cl)c1)n1cc(C(F)F)c2cc(N3CCNCC3)ccc21` [Example 18, 1-((3-chlorophenyl)sulfonyl)-3-(difluoromethyl)-5-(piperazin-1-yl)-1H-indole], in series [1], the inhibition constant (Ki) was determined as 0.015 µM. Still for that read-out and setting: next, `COc1ccc(S(=O)(=O)n2cc(C(F)F)c3cc(N4CCNCC4)ccc32)cc1` [Example 16, 3-(difluoromethyl)-1-((4-methoxyphenyl)sulfonyl)-5-(piperazin-1-yl)-1H-indole]: 0.067 µM; `Cc1ccc(S(=O)(=O)n2cc(C(F)F)c3cc(N4CCNCC4)ccc32)cc1` [Example 15, 3-(difluoromethyl)-5-(piperazin-1-yl)-1-tosyl-1H-indole]: 0.017 µM. Still for that read-out and setting: next, `O=S(=O)(c1cccc(F)c1)n1cc(C(F)F)c2cc(N3CCNCC3)ccc21` [Example 17, 3-(difluoromethyl)-1-((3-fluorophenyl)sulfonyl)-5-(piperazin-1-yl)-1H-indole]: 0.013 µM; `O=S(=O)(c1ccccc1Br)n1cc(C(F)F)c2cc(N3CCNCC3)ccc21` [Example 14, 1-((2-bromophenyl)sulfonyl)-3-(difluoromethyl)-5-(piperazin-1-yl)-1H-indole]: 0.02 µM. `O=S(=O)(c1cccc(Cl)c1)n1cc(C(F)F)c2c(N3CCNCC3)cc(Cl)cc21` [Example 28, 6-chloro-1-((3-chlorophenyl)sulfonyl)-3-(difluoromethyl)-4-(piperazin-1-yl)-1H-indole] showed a Ki in series [1] of 0.0014 µM.

As to `CCN1CCN(c2cccc3c2c(C(F)F)cn3S(=O)(=O)c2cccc(F)c2)CC1` [Example 43, 3-(difluoromethyl)-4-(4-ethylpiperazin-1-yl)-1-((3-fluorophenyl)sulfonyl)-1H-indole], the inhibition constant Ki in series [1] was found to be 0.0023 µM.
